From patent publication US11149033B2, “Heteroaryl compound, enantiomer, diastereomer or pharmaceutically acceptable salt thereof, and antiviral composition containing same as active ingredient” (priority 2016, dated 2021)
Where two headings read alike, the source gives them in different places.

Columns and labels:
B/Florida/04/2006 = experiment: Antiviral activity (drug efficacy evaluation by concentration) against B/Florida/04/2006; type: cell-based, B type influenza virus
[1] = test system: A/California/07/2009 (H1N1); experiment: Antiviral activity (drug efficacy evaluation by concentration) against A/California/07/2009 (H1N1); type: cell-based, A type influenza virus; conditions: Influenza A virus
A/Perth/16/2009 (H3N2) = experiment: Antiviral activity (drug efficacy evaluation by concentration) against A/Perth/16/2009 (H3N2); type: cell-based, A type influenza virus; conditions: Influenza A virus
[2] = CC50, third EC50/CC50 column pair (c7), beside the EC50 of c6

SMILES | EC50 (B/Florida/04/2006; read-out: EC50 B/Florida/04/2006, B/Florida/04/2006) [µM] | EC50 ([1]; H1N1, A/California/07/2009 (H1N1), read-out: EC50 A/California/07/2009 (H1N1)) [µM] | EC50 (A/Perth/16/2009 (H3N2); H3N2, A/Perth/16/2009 (H3N2), read-out: EC50 A/Perth/16/2009 (H3N2)) [µM] | melting point [°C] | CC50 (in vitro; CC50 B/Florida/04/2006, cytotoxicity in the B/Florida/04/2006 assay) [µM] | EC50 (B/Florida/04/2006) [µM] | EC50 ([1]; H1N1, read-out: EC50) [µM] | EC50 (A/Perth/16/2009 (H3N2); H3N2, read-out: EC50) [µM] | CC50 (in vitro; CC50, beside the EC50 of c2) [µM] | CC50 (in vitro; CC50, beside the EC50 of c4) [µM] | CC50 (in vitro; [2]) [µM]
Cc1cccc(C)c1Nc1nnc(C(O)c2ccc(F)c(Cl)c2)o1 (stereo not drawn) [Compound 79, (3-chloro-4-fluorophenyl)(5-((2,6-dimethylphenyl)amino)-1,3,4-oxadiazol-2-yl)methanol] | > 50 | > 50 | > 50 | 185.8 | > 50 | – | – | – | – | – | –
CC(C)c1ccccc1CCc1nnc(Nc2ccc(Br)cc2)o1 [Compound 84, N-(4-bromophenyl)-5-(2-isopropylphenethyl)-1,3,4-oxadiazol-2-amine] | – | – | – | 175.4 | – | > 50 | 34.7 | 41.7 | > 50 | > 50 | > 50
Cc1cccc(C)c1Nc1nnc(CCc2ccccc2C(C)C)o1 [Compound 85, N-(2,6-dimethylphenyl)-5-(2-isopropylphenethyl)-1,3,4-oxadiazol-2-amine] | – | – | – | 234.1 | – | > 50 | > 50 | > 50 | > 50 | > 50 | > 50
Fc1ccc(/C=C/c2nnc(Cc3ccc(Br)cc3)o2)c(Cl)c1 [Compound 86, (E)-2-(4-bromobenzyl)-5-(2-chloro-4-fluorostyryl)-1,3,4-oxadiazole] | – | – | – | 147.9 | – | 42 | 2.7 | 45.7 | > 50 | > 50 | > 50
Fc1ccc(/C=C/c2nnc(Nc3ccc(Br)cc3)o2)c(Cl)c1 [Compound 87, (E)-N-(4-bromophenyl)-5-(2-chloro-4-fluorostyryl)-1,3,4-oxadiazol-2-amine] | – | – | – | 218.7 | – | 2.52 | 2.74 | 1.97 | > 50 | > 50 | > 50
Cc1ccccc1CCc1nnc(Nc2ccc(Br)c(F)c2)o1 [Compound 91, N-(4-bromo-3-fluorophenyl)-5-(2-methylphenethyl)-1,3,4-oxadiazol-2-amine] | – | – | – | 151.6 | – | 19.3 | 9.13 | 8.3 | 6.03 | 15.7 | 6.63
Brc1ccc(Cc2nnc(/C=C/c3ccccc3C3CCCCC3)o2)cc1 [Compound 111, 2-(4-bromobenzyl)-5-(2-cyclohexylstyryl)-1,3,4-oxadiazole] | – | – | – | 117.1 | – | 41.3 | 31.8 | 34.3 | 32.5 | > 50 | > 50
Brc1ccc(Nc2nnc(/C=C/c3ccccc3C3CCCCC3)o2)cc1 [Compound 116, (E)-N-(4-bromophenyl)-5-(2-cyclohexylstyryl)-1,3,4-oxadiazol-2-amine] | – | – | – | 228.3 | – | 34.5 | 36.2 | 35.1 | > 50 | > 50 | –
COc1ccccc1/C=C/c1nnc(Nc2ccc(Br)cc2)o1 [Compound 120, (E)-N-(4-bromophenyl)-5-(2-methoxystyryl)-1,3,4-oxadiazol-2-amine] | – | – | – | 232.4 | – | 17.4 | 23.1 | 18.1 | > 50 | > 50 | –
Cc1ccccc1CCc1nnc(Nc2ccc(F)c(Cl)c2)o1 [Compound 122, N-(3-chloro-4-fluorophenyl)-5-(2-methylphenethyl)-1,3,4-oxadiazol-2-amine] | – | – | – | 87 | – | > 50 | 37.4 | 43.9 | > 50 | > 50 | –
Cc1ccccc1CCc1nnc(Nc2ccc(C(F)(F)F)cc2)o1 [Compound 123, 5-(2-methylphenethyl)-N-(4-(trifluoromethyl)phenyl)-1,3,4-oxadiazol-2-amine] | – | – | – | 164.5 | – | 11 | 14.2 | 3.61 | 35 | > 50 | > 50
